# In US8273780B2, “Polycyclic antagonists of lysophosphatidic acid receptors” (Amira Pharmaceuticals, Inc., priority 2009, dated 2012):
# Legend:
# Human LPA3 = target: T1, Human LPA3 (Homo sapiens, UniProt Q9UBY5); test: LPA3 calcium flux assay; assay type: cell-based; conditions: CHO cells expressing human LPA3, 10 nM LPA; read-out: HLPA3 Ca Flux IC50
# T1 construct: The full-length cDNA fragment for human LPA3 was obtained by PCR from the vector; expressed in transfected cells; cDNA from the Missouri S&T cDNA Resource Center
# T1 sequence (Q9UBY5 1-353): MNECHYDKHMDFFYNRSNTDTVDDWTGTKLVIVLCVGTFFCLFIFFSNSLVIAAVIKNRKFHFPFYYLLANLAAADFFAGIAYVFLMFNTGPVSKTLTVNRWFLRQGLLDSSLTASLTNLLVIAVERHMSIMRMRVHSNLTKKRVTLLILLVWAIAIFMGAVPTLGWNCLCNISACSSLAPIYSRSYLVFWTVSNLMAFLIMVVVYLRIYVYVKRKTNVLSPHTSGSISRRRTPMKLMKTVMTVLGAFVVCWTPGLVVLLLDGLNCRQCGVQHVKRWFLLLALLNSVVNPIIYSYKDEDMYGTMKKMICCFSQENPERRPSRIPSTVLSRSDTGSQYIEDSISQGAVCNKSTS
# Experimental: A vector containing the human LPA3 receptor cDNA was obtained from the Missouri S&T cDNA Resource Center (www.cdna.org). The full-length cDNA fragment for human LPA3 was obtained by PCR from the vector. The nucleotide sequence of the cloned human LPA3 was determined by sequencing and confirmed to be identical to the published human LPA3 sequence (NCBI accession number NM_012152). The cDNA was cloned into the pcDNA5/FRT expression plasmid and transfected in CHO cells using lipofectamine 2000 (Invitrogen Corp., USA). Clones stably expressing human LPA3 were selected using hygromycin and identified as cells that show Ca-influx in response to LPA.
# (§1) Human LPA1 or LPA3 expressing CHO cells are seeded at 20,000-45,000 cells per well in a 96-well poly-D-lysine coated plate one or two days before the assay. Prior to the assay, the cells are washed once with PBS and then cultured in serum-free media overnight. On the day of the assay, a calcium indicator dye (Calcium 4, Molecular Devices) in assay buffer (HBSS with Ca^2+and Mg^2+ and containing 20 mM Hepes and 0.3% fatty-acid free human serum albumin) is added to each well and incubation continued for 1 hour at 37° C. 10 μl of test compounds in 2.5% DMSO are added to the cells and incubation continued at room temperature for 30 minutes. Cells are the stimulated by the addition of 10 nM LPA and intracellular Ca^2+ measured using the Flexstation 3 (Molecular Devices). IC50s are determined using Graphpad prism analysis of drug titration curves.
# Human LPA1 = target: T2, Human LPA1 (Homo sapiens, UniProt Q92633); test: LPA1 calcium flux assay; assay type: cell-based; conditions: CHO cells expressing human LPA1, 10 nM LPA; read-out: HLPA1 Ca Flux IC50
# T2 construct: the full-length cDNA for human LPA1 was obtained by PCR of the reverse transcription reaction; expressed in transfected cells
# T2 sequence (Q92633 whole entry): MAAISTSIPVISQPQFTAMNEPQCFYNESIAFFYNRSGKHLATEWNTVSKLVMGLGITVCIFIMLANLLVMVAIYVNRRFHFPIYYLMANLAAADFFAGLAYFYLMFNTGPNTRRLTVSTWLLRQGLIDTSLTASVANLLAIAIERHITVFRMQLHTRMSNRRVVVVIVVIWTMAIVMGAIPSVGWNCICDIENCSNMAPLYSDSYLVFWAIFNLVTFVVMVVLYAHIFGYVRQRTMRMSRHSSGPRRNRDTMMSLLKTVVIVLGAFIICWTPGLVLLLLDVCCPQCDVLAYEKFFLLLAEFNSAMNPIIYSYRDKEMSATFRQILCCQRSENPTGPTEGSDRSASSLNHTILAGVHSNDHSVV
# Experimental: A 1.1 kb cDNA encoding the human LPA1 receptor was cloned from human lung. Human lung RNA (Clontech Laboratories, Inc. USA) was reverse transcribed using the RETROscript kit (Ambion, Inc.) and the full-length cDNA for human LPA1 was obtained by PCR of the reverse transcription reaction. The nucleotide sequence of the cloned human LPA1 was determined by sequencing and confirmed to be identical to the published human LPA1 sequence (An et al. Biochem. Biophys. Res. Commun. 231:619 (1997). The cDNA was cloned into the pcDNA5/FRT expression plasmid and transfected in CHO cells using lipofectamine 2000 (Invitrogen Corp., USA). Clones stably expressing human LPA1 were selected using hygromycin and identified as cells that show Ca-influx in response to LPA.
# as §1
Compound,IC50 (Human LPA3) [nM],IC50 (Human LPA1) [nM]
"Cc1noc(-c2ccc(-c3ccc(C4(C(=O)O)CC4)cc3)cc2)c1NC(=O)OC(C)c1ccccc1 (racemic) [Compound 34, 1-{4′-[3-Methyl-4-(1-phenyl-ethoxycarbonylamino)-isoxazol-5-yl]-biphenyl-4-yl}-cyclopropanecarboxylic acid]",1000 to 10000,< 300
"Cc1noc(-c2ccc(-c3ccc(C4(C(=O)O)CC4)cc3)cc2)c1NC(=O)O[C@@H](C)C1CC1 (single isomer, unassigned) [Compound 5]",–,1000 to 10000
"Cc1noc(-c2ccc(-c3ccc(C4(C(=O)O)CC4)cc3)cc2)c1NC(=O)O[C@H](C)C1CC1 (single isomer, unassigned) [Compound 6]",> 10000,< 300
"Cc1noc(-c2ccc(-c3ccc(C4(C(=O)O)CC4)cc3)cc2)c1NC(=O)OC(C)c1ccc(C(F)(F)F)cc1 (single isomer, unassigned) [Compound 13, 1-(4′-{3-Methyl-4-[1-(4-trifluoromethyl-phenyl)-ethoxycarbonylamino]-isoxazol-5-yl}-biphenyl-4-yl)-cyclopropanecarboxylic acid]",–,1000 to 10000
"Cc1noc(-c2ccc(-c3ccc(C4(C(=O)O)CC4)cc3)cc2)c1NC(=O)OC(C)c1ccc(C(F)(F)F)cc1 (single isomer, unassigned) [Compound 14, 1-(4′-{3-Methyl-4-[1-(4-trifluoromethyl-phenyl)-ethoxycarbonylamino]-isoxazol-5-yl}-biphenyl-4-yl)-cyclopropanecarboxylic acid]",1000 to 10000,< 300
"Cc1noc(-c2ccc(-c3ccc(C4(C(=O)O)CC4)cc3)cc2)c1NC(=O)OC(C)C1CCCCC1 (centres unmarked) [Compound 2, 1-{4′-[4-(1-Cyclohexyl-ethoxycarbonylamino)-3-methyl-isoxazol-5-yl]-biphenyl-4-yl}-cyclopropanecarboxylic acid]",1000 to 10000,< 300
"Cc1ccccc1[C@@H](C)OC(=O)Nc1c(C)noc1-c1ccc(-c2ccc(C3(C(=O)O)CC3)cc2)cc1 [Compound 3, 1-{4′-[3-Methyl-4-((R)-1-o-tolyl-ethoxycarbonylamino)-isoxazol-5-yl]-biphenyl-4-yl}-cyclopropanecarboxylic acid]",300 to 1000,< 300
"Cc1noc(-c2ccc(-c3ccc(C4(C(=O)O)CC4)cc3)cc2)c1NC(=O)OCC1CC1 [Compound 7, 1-[4′-(4-Cyclopropylmethoxycarbonylamino-3-methyl-isoxazol-5-yl)-biphenyl-4-yl]-cyclopropanecarboxylic acid]",> 10000,< 300
"Cc1noc(-c2ccc(-c3ccc(C4(C(=O)O)CC4)cc3)cc2)c1NC(=O)O[C@H](C)c1ccccc1C(F)(F)F [Compound 9, 1-(4′-{3-Methyl-4-[(R)-1-(2-trifluoromethyl-phenyl)-ethoxycarbonylamino]-isoxazol-5-yl}-biphenyl-4-yl)-cyclopropanecarboxylic acid]",1000 to 10000,< 300
"Cc1noc(-c2ccc(-c3ccc(C4(C(=O)O)CCC4)cc3)cc2)c1NC(=O)O[C@H](C)c1ccccc1 [Compound 10, 1-{4′-[3-Methyl-4-((R)-1-phenyl-ethoxycarbonylamino)-isoxazol-5-yl]-biphenyl-4-yl}-cyclobutanecarboxylic acid]",1000 to 10000,< 300
"Cc1noc(-c2ccc(-c3ccc(C4(C(=O)O)CCCC4)cc3)cc2)c1NC(=O)O[C@H](C)c1ccccc1 [Compound 11, 1-{4′-[3-Methyl-4-((R)-1-phenyl-ethoxycarbonylamino)-isoxazol-5-yl]-biphenyl-4-yl}-cyclopentanecarboxylic acid]",1000 to 10000,< 300
"COc1ccccc1C(C)OC(=O)Nc1c(C)noc1-c1ccc(-c2ccc(C3(C(=O)O)CC3)cc2)cc1 (centres unmarked) [Compound 12, 1-(4′-{4-[1-(2-Methoxy-phenyl)-ethoxycarbonylamino]-3-methyl-isoxazol-5-yl}-biphenyl-4-yl)-cyclopropanecarboxylic acid]",–,< 300
"Cc1noc(-c2ccc(-c3ccc(C4(C(=O)O)CC4)cc3)cc2)c1NC(=O)OC(C)c1cccc(C#N)c1 (centres unmarked) [Compound 15, 1-(4′-{4-[1-(3-Cyano-phenyl)-ethoxycarbonylamino]-3-methyl-isoxazol-5-yl}-biphenyl-4-yl)-cyclopropanecarboxylic acid]",1000 to 10000,< 300
"Cc1noc(-c2ccc(-c3ccc(C4(C(=O)O)CC4)cc3)cc2)c1NC(=O)O[C@H](C)c1ccc(C#N)cc1 [Compound 18, 1-(4′-{4-[(R)-1-(4-Cyano-phenyl)-ethoxycarbonylamino]-3-methyl-isoxazol-5-yl}-biphenyl-4-yl)-cyclopropanecarboxylic acid]",1000 to 10000,< 300
"Cc1noc(-c2ccc(-c3ccc(C4(C(=O)O)CC4)cc3)cc2)c1NC(=O)O[C@H](C)C1CCC1 [Compound 20, 1-{4′-[4-((R)-1-Cyclobutyl-ethoxycarbonylamino)-3-methyl-isoxazol-5-yl]-biphenyl-4-yl}-cyclopropanecarboxylic acid]",1000 to 10000,< 300
"Cc1noc(-c2ccc(-c3ccc(C4(C(=O)O)CC4)cc3)cc2)c1NC(=O)O[C@H](C)c1cccc(C(F)(F)F)c1 [Compound 22, 1-(4′-{3-Methyl-4-[(R)-1-(3-trifluoromethyl-phenyl)-ethoxycarbonylamino]-isoxazol-5-yl}-biphenyl-4-yl)-cyclopropanecarboxylic acid]",< 300,< 300
"COc1cccc([C@@H](C)OC(=O)Nc2c(C)noc2-c2ccc(-c3ccc(C4(C(=O)O)CC4)cc3)cc2)c1 [Compound 23, 1-(4′-{4-[(R)-1-(3-Methoxy-phenyl)-ethoxycarbonylamino]-3-methyl-isoxazol-5-yl}-biphenyl-4-yl)-cyclopropanecarboxylic acid]",1000 to 10000,< 300
"COc1ccc([C@@H](C)OC(=O)Nc2c(C)noc2-c2ccc(-c3ccc(C4(C(=O)O)CC4)cc3)cc2)cc1 [Compound 24, 1-(4′-{4-[(R)-1-(4-Methoxy-phenyl)-ethoxycarbonylamino]-3-methyl-isoxazol-5-yl}-biphenyl-4-yl)-cyclopropanecarboxylic acid]",> 10000,< 300
"Cc1noc(-c2ccc(-c3ccc(C4(C(=O)O)CC4)cc3)cc2)c1NC(=O)OC(C)c1cccc(Br)c1 (centres unmarked) [Compound 25, 1-(4′-{4-[1-(3-Bromo-phenyl)-ethoxycarbonylamino]-3-methyl-isoxazol-5-yl}-biphenyl-4-yl)-cyclopropanecarboxylic acid]",300 to 1000,< 300
"Cc1noc(-c2ccc(-c3ccc(C4(C(=O)O)CC4)cc3)cc2)c1NC(=O)OC(C)c1cccc(Cl)c1 (centres unmarked) [Compound 26, 1-(4′-{4-[1-(3-Chloro-phenyl)-ethoxycarbonylamino]-3-methyl-isoxazol-5-yl}-biphenyl-4-yl)-cyclopropanecarboxylic acid]",300 to 1000,< 300
"Cc1noc(-c2ccc(-c3ccc(C4(C(=O)O)CC4)cc3)cc2)c1NC(=O)O[C@@H](C)c1ccccc1 [Compound 27, 1-{4′-[3-Methyl-4-((S)-1-phenyl-ethoxycarbonylamino)-isoxazol-5-yl]-biphenyl-4-yl}-cyclopropanecarboxylic acid]",> 10000,< 300
"Cc1noc(-c2ccc(-c3ccc(C4(C(=O)O)CC4)cc3)cc2)c1NC(=O)OC(C)c1cccc(O)c1 (centres unmarked) [Compound 28, 1-(4′-{4-[1-(3-Hydroxy-phenyl)-ethoxycarbonylamino]-3-methyl-isoxazol-5-yl}-biphenyl-4-yl)-cyclopropanecarboxylic acid]",> 10000,< 300
